# Source: PubChem BioAssay AID504539 (Broad Institute, 2011)
# Test system: Cell-based prion protein 5' UTR reporter, plate reader
# Test: prion protein 5' UTR mRNA inhibitors – cell-based, plate reader, cherry-picked samples, dose response (AID 504539)
row,SMILES,AC50 [nM]
1,C=CCn1c(C)cc(C(=O)CN2C(=O)c3ccccc3S2(=O)=O)c1C,249
2,Cc1nn(-c2nc3ccccc3[nH]2)c(=O)c2ccccc12,145
3,Cc1c(C(=O)OC2CCCC2)[nH]c2c1C(=O)CC(c1ccco1)C2 (stereo not given),791
4,CCOc1ccc(/C=C2\SC(=S)N(CCC(=O)O)C2=O)cc1,277
5,Cc1ccc(C(=O)O/N=C(\N)c2ccccn2)c(C)c1,46
6,NC(=O)c1cc2c3ccccc3ccn2c1-c1ccccc1,635
7,Nc1ccc(-c2ncc(-c3ccccc3)o2)cc1,145
8,Cc1ccc(-n2[nH]c(=O)c(-c3ccccn3)c2C)cc1,368
9,OCCCNc1cc(-c2ccnc(Nc3cccc(Cl)c3)n2)ccn1,181
10,Clc1ccc2nc(-c3ccccc3)nc(C(Cl)Cl)c2c1,885
11,Cc1cc(/C=N/Nc2ncnc(N)c2[N+](=O)[O-])c(C)n1-c1ccccc1,636
12,N/C(=N\OC(=O)c1ccccc1Cl)c1ccccn1,558
13,CCN(CC)c1ccc(/C=N/N=C(N)N)c(O)c1,1410
14,Cc1ccc(Nc2nc(-c3c(C)nc4ncccn34)cs2)cc1,168
15,CC1CCCN(c2ncnc3c2cnn3-c2ccc(Cl)cc2)C1 (stereo not given),< 38
16,C(=NN1CCCCCC1)c1ccc2ccccc2n1,< 38
17,COCCCN=C1NN=C(c2cc(C)n(Cc3ccco3)c2C)CS1,1130
18,COC1C(O)C(C)OC(OC2CCC3(C=O)C(CCC4C3CCC3(C)C(C5=CC(=O)OC5)CCC43O)C2)C1O (stereo not given),< 38
19,Nc1ncnc2c1ccn2[C@@H]1O[C@H](CO)[C@@H](O)[C@H]1O,164
20,COC(=O)c1cc(C(=O)N2CCN(c3cccc(Cl)c3)CC2)cc([N+](=O)[O-])c1,470
21,Cc1cccc(-n2ncc3c(N(C)C4CCCCC4)ncnc32)c1,796
22,c1cc2c(cc1C1=NNC(=NC3CC3)SC1)OCCO2,189
23,O=C(CN1C(=O)c2ccccc2S1(=O)=O)c1ccc(OC(F)F)cc1,657
24,CC1OC(OC2C=C3CCC4C(CCC5(C)C(c6ccc(=O)oc6)CCC45O)C3(C)CC2)C(O)C(OC2OC(CO)C(O)C(O)C2O)C1O (stereo not given),< 38
25,COc1cc(C2C(C#N)=C(N)Oc3cc(N)ccc32)cc(OC)c1OC (stereo not given),614
26,Cc1ccc2nc3sc(C(=O)N4CCOCC4)c(N)c3cc2c1,275
27,COc1ccccc1C(=O)Nc1nc2ccccc2[nH]1,178

row,SMILES,AC50 [nM]
1,Cc1ccc(C(=O)N/N=C/c2ccc([N+](=O)[O-])s2)cc1,1010
2,CC(=O)OC1C2(CC3N4C(=O)C5(CO)SSC4(CC31O)C(=O)N5C)OC(C)C(C)(C)C2=O (stereo not given),295
3,CCOC(=O)C(C)Oc1cccc2c(=O)n(CC(=O)NCc3ccc(F)cc3)ccc12 (stereo not given),486
4,CN1CCN(c2ccc([N+](=O)[O-])c3no[n+]([O-])c23)CC1,2340
5,CC(C)c1ccc(-c2nc3ccccc3s2)cc1,< 38
6,Cc1cc(C(=O)CN2C(=O)c3ccccc3S2(=O)=O)c(C)n1CC1CCCO1 (stereo not given),271
7,O=c1c2ccccc2cnn1-c1nc2ccccc2[nH]1,185
8,CCCOc1ccccc1C1CC(=O)Nc2cc3c(cc21)OCCO3 (stereo not given),2900
9,CCN(CCO)c1ccc(N=Nc2cc(C)[nH]n2)cc1,471
10,C=CCn1c(C)cc(C2=NNC(=NCC)SC2)c1C,< 38
11,CCC(C)(O)C(=O)OC1C(=O)OC2CC3C(C)=CC(=O)C(O)C3(C)C3C4(O)OCC23C1C(C)C4O (stereo not given),178
12,COc1cccc2c1C(=O)c1c(O)c3c(c(O)c1C2=O)C[C@@](O)(C(=O)CO)C[C@@H]3O[C@H]1C[C@H](N)[C@H](O)[C@H](C)O1,650
13,Cc1ccc(N2C(=O)c3cccc4c(N)ccc(c34)C2=O)c2cccnc12,134
14,COc1cccc2c1C(=O)c1c(O)c3c(c(O)c1C2=O)CC(O)(C(=O)CO)CC3OC1CC(N(C)C)C(O)C(C)O1 (stereo not given),130
15,Cc1cc(C(=O)CN2C(=O)c3ccccc3S2(=O)=O)c(C)n1C(C)C,2160
16,Cc1ccc(Sc2c(CO)c(-c3ccccc3)nn2C)cc1,528
17,CCOc1ccc(NC(=O)Nc2cccc(C(=O)O)c2)cc1,136
18,CC(=O)OCC12CC(OC(=O)CC(C)C)C(C)=CC1OC1C(O)C(OC(C)=O)C2(C)C12CO2 (stereo not given),< 38
19,CC(=O)OC1CC(OC2C(O)CC(OC3C(O)CC(OC4CCC5(C)C(CCC6C5CCC5(C)C(C7=CC(=O)OC7)C(O)CC65O)C4)OC3C)OC2C)OC(C)C1OC1OC(CO)C(O)C(O)C1O (stereo not given),370
20,c1ccc2nc(-c3ccc(N4CCOCC4)cc3)ccc2c1,385
21,COc1ccc(N/C=C/C(=O)c2cc(OC)c(OC)c(OC)c2)cc1,2440
22,COCCn1c(C)cc(C2=NNC(=NC3CC3)SC2)c1C,< 38
23,CC1=C(N2CC2)C(=O)C(CO)=C(N2CC2)C1=O,154
24,CC(C)(O)/C=C/C(=O)C(C)(O)C1C(O)CC2(C)C3CC=C4C(C=C(O)C(=O)C4(C)C)C3(C)C(=O)CC12C (stereo not given),104
25,C/C=C/COC(=O)c1[nH]c2c(c1C)C(=O)CC(c1ccco1)C2 (stereo not given),660
26,CCOC(=O)COc1cccc2c(=O)n(CC(=O)NCc3ccc(F)cc3)ccc12,1540
27,COc1cc(NC(=O)c2cccs2)c(C(=O)OCC(=O)c2cc(C)n(-c3ccccc3)c2C)cc1OC,989

row,SMILES,AC50 [nM]
1,Cc1ccccc1OCC(=O)Nc1cccc(C(=O)O)c1,422
2,CNc1c2cccc(C)c2nc2c(C(=O)NCCN(C)C)cccc12,307
3,COc1ccccc1NC(=O)c1oc2ccccc2c1NC(=O)c1cc(OC)c(OC)c(OC)c1,537
4,Cc1cc(C(=O)COC(=O)c2ccccc2Br)c(C)n1CC1CCCO1 (stereo not given),90
5,Cc1ccc2nc(-c3ccccc3)cn2c1,210
6,CC(=O)OC(C)(C)/C=C/C(=O)[C@](C)(O)C1[C@H](O)C[C@@]2(C)C3CC=C4C(C[C@H](O)C(=O)C4(C)C)[C@]3(C)C(=O)C[C@]12C (stereo not given in full),< 38
7,CC(C)CCCCCCCCCCCCC(=O)NCC(=O)NC1C(O)C(O)C(Nc2ncnc3nc[nH]c23)OC1C(O)CO (stereo not given),87
8,Cc1cccc(C(=O)O/N=C(\N)c2ccccn2)c1,915
9,COC(=O)c1c(N)sc(C(=O)NCCc2ccccc2)c1C,413
10,Cc1ccc(-c2nnc(SCC(=O)Nc3ccccc3F)o2)cc1,284
11,C[C@]12CC[C@H](O)C[C@H]1CC[C@@H]1[C@@H]2C[C@@H](O)[C@]2(C)[C@@H](C3=CC(=O)OC3)CC[C@]12O,374
12,O=C(Nc1ccc(N2CCCCC2)cc1)c1ccccn1,273
13,CCn1c(C)cc(C(=O)CN2C(=O)c3ccccc3S2(=O)=O)c1C,1260
14,O=C(c1ccc(Cl)cc1)N1CCCCC(Sc2nnc(-c3ccc4c(c3)OCO4)o2)C1=O (stereo not given),419
15,COc1cc2c(c(OC)c1O)-c1ccc(OC)c(=O)cc1C(NC(=O)C(F)(F)F)CC2 (stereo not given),140
16,CC(C)Oc1ccc(C(=O)Nc2nc3ccccc3[nH]2)cc1,304
17,COc1ccc(C2=Nn3c(nnc3-c3ccccc3OC)SC2)cc1OC1CCCC1,2970
18,CC1CCCC=CC2CC(OC(=O)CN(C)C)CC2C(O)C=CC(=O)O1 (stereo not given),126
19,O=C(/C=C/Nc1ccccc1Br)c1ccccn1,281
20,CCCC[C@@H](C)C[C@@H](C)C(=O)N(C)[C@@H](CC(C)C)C(=O)N[C@H](C(=O)N(C)[C@H](C(=O)N1C[C@@H](O)C[C@H]1C(=O)N1C(=O)C=C[C@@H]1C)C(C)C)C(C)OC(C)=O (stereo not given in full),< 38
21,COc1cc(C2c3cc4c(cc3C(OC3OC5COC(c6cccs6)OC5C(O)C3O)C3COC(=O)C23)OCO4)cc(OC)c1O (stereo not given),657
22,COc1cc(C2c3cc4c(cc3OC(NNC(N)=O)C2C)OCO4)cc(OC)c1OC (stereo not given),822
23,CC1=CC2OC3CC4OC(=O)C=CC=CC(C(C)O)OCC(O)C(C)CC(=O)OCC2(CC1O)C4(C)C31CO1 (stereo not given),< 38
24,CN(C)c1ccc2c(c1)OC(N)=C(C#N)C2c1cccc(F)c1 (stereo not given),179
25,CCOc1ccccc1C1C2=C(COC2=O)Nc2cc3c(cc21)OCO3 (stereo not given),1050
26,Cc1cc(/C=C2\SC(=S)N(C)C2=O)c(C)n1-c1ccc(O)cc1,130
27,C[C@]12CCC3C(CCC4=CC(O)CC[C@@]43/C=N/O)C1(O)CCC2C1=CC(=O)OC1 (stereo not given in full),308

row,SMILES,AC50 [nM]
1,CC[C@@H](C)[C@H](C(CC(=O)N1CCCC1[C@@H](OC)[C@H](C)C(=O)N[C@H](Cc1ccccc1)c1nccs1)OC)N(C)C(=O)[C@H](NC(=O)[C@@H](C(C)C)N(C)C)C(C)C (stereo not given in full),117
2,Cc1cc([N+](=O)[O-])c2ccccc2[n+]1[O-],256
3,COc1ccc(C(=O)c2cc([N+](=O)[O-])ccc2N2CCOCC2)cc1,397
4,COC(=O)CCC(=O)NC(=S)Nc1sc(C)c(C)c1C(N)=O,636
5,O=C(CCCc1ccccc1)c1ccc2c(c1)OCCO2,344
6,CC[C@@]1(O)C(=O)OCc2c1cc1n(c2=O)Cc2cc3c(NC(=O)CN)cccc3nc2-1,232
7,C[C@@H]1O[C@@H](O[C@@H]2C=C3CC[C@@H]4C(CC[C@]5(C)[C@@H](c6ccc(=O)oc6)CC[C@]45O)[C@@]3(C)CC2)[C@H](O)[C@H](O)[C@H]1O (stereo not given in full),< 38
8,O=C(CN1C(=O)c2ccccc2S1(=O)=O)c1ccc2c(c1)OCCCO2,39
9,Cc1c(/C=N\NC(=O)C2COc3ccccc3O2)c2ccccc2n1C (stereo not given),3040
10,COc1cc(-c2noc(C)c2/C=C/c2ccc(OC(C)=O)cc2)cc(OC)c1OC,555
11,COc1cc(SC)ccc1C(=O)Nc1nc(C)cs1,216
12,Cc1ccc(C(=O)c2cc([N+](=O)[O-])ccc2N2CCCCC2)cc1,848
13,O=C(NCCc1ccccc1)c1ccc2c(c1)OCCO2,196
14,COc1cc(SC)ccc1C(=O)Nc1nc2ccccc2[nH]1,< 38
15,CC1=CC(C)CC(C)OC(=O)CC(c2ccc(O)cc2)NC(=O)C(Cc2c(Br)[nH]c3ccccc23)N(C)C(=O)C(C)NC(=O)C(C)C1 (stereo not given),146
16,O=C(NCCc1ccccc1F)c1ccc2c(c1)OCCO2,140
17,COc1ccc(C(=O)NN(C)c2nc(C(F)(F)F)nc3ccccc23)cc1,163
18,COc1cc2c(c(OC)c1OC)-c1ccc(O)cc1C(NC(C)=O)CC2 (stereo not given),128
19,COc1ccc(OC)c(C2C3=C(COC3=O)Nc3cc4c(cc32)OCO4)c1 (stereo not given),197
20,C=CCOc1ccc(/C=C2\SC(=S)N(CCC(=O)O)C2=O)cc1,963
21,COc1ccc(OC)c(Nc2c3c(nc4ccccc24)CCC3)c1,1600
22,Brc1ccc(N=Nc2ccc3ccccc3n2)cc1,543
23,Cc1nn(C(C)(C)C)c(C)c1/C=N/OC(=O)Nc1ccc(Cl)cc1,< 38
24,N#CC1=C(N)Oc2c(ccc3ccccc23)C1c1ccsc1 (stereo not given),831
